The values that follow come from US12134769B2, “MicroRNA-198 as a tumor suppressor in ovarian cancer” (Baylor College of Medicine, priority 2011, dated 2024).

One data set has as its system MIA-MSLN cells. The experiment in a line: Anchorage independent growth assay in soft agar. The conditions noted are these: MIA-MSLN-miR-198 vs MIA-MSLN, 15 days, ImageJ. The class given is cell-based, human. The procedure:
A soft agar assay for colony formation was performed by coating 35 mm dishes with a combination of 0.5% base agar and 0.7% top agar. Base agar preparation: 1% LMP Agarose (DNA grade) (Baylor College of Medicine) was melted in 1× incomplete DMEM, microwaved, and cooled to 40° C. in a water bath. Equal volumes of 20% FBS DMEM pre-warmed to 40° C. in water bath were mixed to give 0.5% Agar+10% DMEM, of which 1.5 ml/35 m Petri dish was added and allowed to set at room temperature.
Top agar preparation: 0.7% LMP Agarose (DNA grade) in 1×DMEM was prepared in the same manner as above. Cells were trypsinized and diluted to 0.1×10^6 cells/ml, in the 20% FBS DMEM; 5,000 cells/dish were plated in duplicate. The plates were then incubated at 37° C. in a humidified incubator for 15 days. Following incubation, the plates were stained with 0.5 ml of 1% MTT for 2 h, and colonies were photographed using a dissecting microscope. Images were analyzed using IMAGEJ software.

The test system of a further data set is HPDE cells. Briefly: Migration assay. The note with it: 72 h. The class given is cell-based. The procedure: Cell migration was determined with a modified Boyden chamber assay as described previously (Li et al., 2008). For invasion assays, Matrigel basement membrane matrix (BD Biosciences) was used by adding 100 ul of 1 mg/ml Matrigel to the migration chamber inserts prior to plating of the cells (Li et al., 2008, Bharadwaj).

As to “miR-198: microRNA-198, SEQ ID NO: 1 gguccagaggggagauagg; used as transfected precursors (Ambion) or Lenti-miR stable overexpression (GGUCCAGAGGGGAGAUAGG; listed as RNA, chemistry not given here; listed as Homo sapiens)”, the “reduction in mean threshold intensity of soft agar colonies” value in the data set with MIA-MSLN cells was approximately 20 fold. In addition, the migration result with HPDE cells is listed as “did not seem to have an effect”.
